Like-named read-outs stand apart in the source and are kept apart here. Where a SMILES comes first, the peptide text is derived from it.

In series [1] the test system is human iPSC-CM (iCell Cardiomyocytes). Kind of series: Dose-response cell viability (CellTiter-Fluor) in iPSC-derived cardiomyocytes, maximum acceptable viability exposure. Type of series: cell-based. On the procedure: Metabolomic data was acquired to identify non-cytotoxic exposure levels and identify biomarkers of cardiotoxicity from a dose-response experiment using spent medium of iPSC-CM treated with 53 of the compounds in the training set. Briefly, human iPSC-CM (iCell® Cardiomyocytes, cat #R1007, Cellular Dynamics International) were exposed to eight concentrations of each training set compound. Spent media was collected for LC-MS analysis and cell viability was assessed with the CellTiter-Fluor Cell Viability Assay (Promega). Spent media samples were prepared and analyzed using the methods developed in Specific Aim 1. The spent media samples from iPSC-CM treated with 10 representative cardiotoxic and non-cardiotoxic compounds were analyzed with all four LC-MS methods to rank biological significant secretome features by predictive capacity. […]
The goal of the concentration-response phase of biomarker identification was to identify non-cytotoxic exposure levels that change iPSC-CM metabolism. The method included modeling feature response, calculating maximum acceptable viability (MAVE), determining response at Cmax, and MAVE, reviewing the top 4 responding features, and selecting the highest tested exposure with 90% viability.

For series [2] the following is noted: cited from earlier work.
Where [3] appears, read: highest exposure tested with ≥90% viability, iPSC-CM, eight concentrations.

In the case of `CC(C)C[C@H](NC(=O)[C@H](Cc1ccccc1)NC(=O)c1cnccn1)B(O)O` [Bortezomib], the “MAVE (Maximum Acceptable Viability Exposure)” value (“MAVE” for short) in series [1] (human) turned out to be 0.1 µM. The “Cmax Total” value in series [2] (therapeutic total Cmax) was 300 nM.

For the compound `COc1ccc(C(=O)Nc2ccccc2CCC2CCCCN2C)cc1` (stereo not drawn) [Encainide], the “MAVE” value in series [1] (human) turned out to be 100 µM. Also, in series [2] (therapeutic total Cmax), the “Cmax Total” value was 710 nM.

As to `OC[C@@H](O)[C@@H](O)[C@H](O)[C@@H](O)CO` [Sorbitol], the “MAVE” value in series [1] (human) came out at 100 µM. Also, in series [2] (therapeutic total Cmax), the “Cmax Total” value is 3900 nM.

As for `CC(=O)[C@]1(O)Cc2c(O)c3c(c(O)c2[C@@H](O[C@H]2C[C@H](N)[C@H](O)[C@H](C)O2)C1)C(=O)c1ccccc1C3=O` [Idarubicin], the “MAVE” value in series [1] (human) stood at 0.1 µM. Also, the “Cmax Total” value in series [2] (therapeutic total Cmax) is 120 nM.

On to `COC(=O)[C@H](Cc1ccccc1)NC(=O)[C@@H](N)CC(=O)O` [Aspartame] (H-Asp-Phe-OMe), for which the “MAVE” value in series [1] (human) was found to be 100 µM. For the same compound, the “Cmax Total” value in series [2] (therapeutic total Cmax) was 1000 nM.

With `Cc1nc(Nc2ncc(C(=O)Nc3c(C)cccc3Cl)s2)cc(N2CCN(CCO)CC2)n1` [Dasatinib], in series [1] (human), the “MAVE” value was determined as 10 µM. Moreover, in series [2] (therapeutic total Cmax), the “Cmax Total” value is 720 nM.

As for `CC(C)(C)c1ccc(C(O)CCCN2CCC(C(O)(c3ccccc3)c3ccccc3)CC2)cc1` (stereo not drawn) [Terfenadine], the “MAVE” value in series [1] (human) is 3 µM. Besides, the “Cmax Total” value in series [2] (therapeutic total Cmax) was 300 nM.

In the case of `COc1ccc(CCN2CCC(Nc3nc4ccccc4n3Cc3ccc(F)cc3)CC2)cc1` [Astemizole], the “MAVE” value in series [1] (human) turned out to be 3 µM. Further, the “Cmax Total” value in series [2] (therapeutic total Cmax) is 8 nM.

Turning to `CCN1/C(=C/C=C/C=C/c2sc3ccccc3[n+]2CC)Sc2ccccc21` [Dithiazanine Iodide], the “MAVE” value in series [1] (human) amounted to 0.1 µM. In addition, the “Cmax Total” value in series [2] (therapeutic total Cmax) was 100 nM.

As for `CC1(C)S[C@@H]2[C@H](NC(=O)[C@H](N)c3ccc(O)cc3)C(=O)N2[C@H]1C(=O)O` [Amoxicillin], the “MAVE” value in series [1] (human) stood at 100 µM. The “Cmax Total” value in series [2] (therapeutic total Cmax) is 17000 nM.

As to `C[C@@H]1[C@H](O)[C@@H](C)/C=C/C=C/C=C/C=C/C=C/C=C/C=C/[C@H](O[C@@H]2O[C@H](C)[C@@H](O)[C@H](N)[C@@H]2O)C[C@@H]2O[C@](O)(C[C@@H](O)C[C@@H](O)[C@H](O)CC[C@@H](O)C[C@@H](O)CC(=O)O[C@H]1C)C[C@H](O)[C@H]2C(=O)O` [Amphotericin B], the “MAVE” value in series [1] (setting [3]) came to 3 µM. Moreover, the “Cmax Total” value in series [2] (therapeutic total Cmax) was 89800 nM.

For the compound `CCCOC(=O)c1cc(O)c(O)c(O)c1` [Propyl Gallate], the “MAVE” value in series [1] (human) worked out at 30 µM. In series [2] (therapeutic total Cmax), the “Cmax Total” value is 3000 nM.

Take `O=C(O)c1ccccc1` [Benzoic Acid]: the “MAVE” value in series [1] (human) stood at 100 µM. The “Cmax Total” value in series [2] (therapeutic total Cmax) is 36000 nM.

In the case of `C[C@@H]1C/C=C/C=C/C=C/C=C/[C@H](O[C@@H]2O[C@H](C)[C@@H](O)[C@H](N)[C@@H]2O)C[C@@H]2O[C@](O)(C[C@@H](O)C[C@H]3O[C@@H]3/C=C/C(=O)O1)C[C@H](O)[C@H]2C(=O)O` [Natamycin], in series [1] (human), the “MAVE” value worked out at 30 µM.

Turning to `CS(=O)(=O)c1ccc(C2=C(c3ccccc3)C(=O)OC2)cc1` [Rofecoxib], in series [1] (human), the “MAVE” value stood at 100 µM. The “Cmax Total” value in series [2] (therapeutic total Cmax) was 1700 nM.

As for `CCCCCCc1ccc(O)cc1O` [Hexylresorcinol], the “MAVE” value in series [1] (human) was determined as 30 µM. For the same compound, the “Cmax Total” value in series [2] (therapeutic total Cmax) is 1000 nM.

Take `CC(C)C[C@H](N)C(=O)O` [Leucine]: in series [1] (human), the “MAVE” value came out at 100 µM.

On to `CCCN1C[C@H](CSC)C[C@@H]2c3cccc4[nH]cc(c34)C[C@H]21` [Pergolide], for which the “MAVE” value in series [1] (human) was found to be 30 µM. In addition, in series [2] (therapeutic total Cmax), the “Cmax Total” value was 3 nM.

Turning to `C#Cc1cccc(Nc2ncnc3cc(OCCOC)c(OCCOC)cc23)c1` [Erlotinib], in series [1] (human), the “MAVE” value is 3 µM. Moreover, in series [2] (therapeutic total Cmax), the “Cmax Total” value is 3800 nM.

On to `CS(=O)(=O)CCNCc1ccc(-c2ccc3ncnc(Nc4ccc(OCc5cccc(F)c5)c(Cl)c4)c3c2)o1` [Lapatinib], for which the “MAVE” value in series [1] (human) was determined as 10 µM. Further, the “Cmax Total” value in series [2] (therapeutic total Cmax) is 4180 nM.

`CCN[C@@H](C)Cc1cccc(C(F)(F)F)c1` [Dexfenfluramine]: the “MAVE” value in series [1] (human) turned out to be 30 µM. For the same compound, in series [2] (in vivo), the “Cmax Total” value is 400 nM.

In the case of `O=C1c2c(O)ccc(O)c2C(=O)c2c(NCCNCCO)ccc(NCCNCCO)c21` [Mitoxantrone], the “MAVE” value in series [1] (human) came out at 1 µM.

Regarding `CCN(CC)CCCC(C)Nc1ccnc2cc(Cl)ccc12` (stereo not drawn) [Chloroquine], the “MAVE” value in series [1] (human) was 3 µM. For the same compound, in series [2] (therapeutic total Cmax), the “Cmax Total” value is 960 nM.

On to Arsenic Trioxide, for which the “MAVE” value in series [1] (setting [3]) came to 10 µM. In series [2] (therapeutic total Cmax), the “Cmax Total” value is 12100 nM.

Consider `Cc1onc(-c2ccccc2)c1-c1ccc(S(N)(=O)=O)cc1` [Valdecoxib], for which the “MAVE” value in series [1] (human) is 100 µM. In addition, the “Cmax Total” value in series [2] (therapeutic total Cmax) is 510 nM.

For `CCCCCNC(=N)N/N=C/c1c[nH]c2ccc(OC)cc12` [Tegaserod], the “MAVE” value in series [1] (human) was found to be 3 µM. Moreover, in series [2] (therapeutic total Cmax), the “Cmax Total” value is 80 nM.

Turning to `CN(C)CCC=C1c2ccccc2CCc2ccccc21` [Amitriptyline], the “MAVE” value in series [1] (human) came out at 1 µM. In addition, in series [2] (therapeutic total Cmax), the “Cmax Total” value is 950 nM.

With `CNC(=C[N+](=O)[O-])NCCSCc1ccc(CN(C)C)o1` [Ranitidine], in series [1] (human), the “MAVE” value came out at 100 µM. Also, the “Cmax Total” value in series [2] (therapeutic total Cmax) is 1700 nM.

As for `CNCCC=C1c2ccccc2CCc2ccccc21` [Nortriptyline], in series [1] (human), the “MAVE” value was determined as 1 µM. Moreover, in series [2] (therapeutic total Cmax), the “Cmax Total” value was 570 nM.

For the compound `CN1CCN(C2=Nc3cc(Cl)ccc3Nc3ccccc32)CC1` [Clozapine], the “MAVE” value in series [1] (human) came out at 10 µM. In addition, in series [2] (therapeutic total Cmax), the “Cmax Total” value was 950 nM.

Take `CNC(=O)c1cc(Oc2ccc(NC(=O)Nc3ccc(Cl)c(C(F)(F)F)c3)cc2)ccn1` [Sorafenib]: the “MAVE” value in series [1] (human) stood at 3 µM.

In the case of `CC(C)NCC(O)c1ccc(O)c(O)c1` (stereo not drawn) [Isoproterenol], in series [1] (human), the “MAVE” value stood at 100 µM. Moreover, the “Cmax Total” value in series [2] (therapeutic total Cmax) is 10 nM.

Consider `CC(=O)O[C@H]1C(=O)[C@@]2(C)[C@H]([C@H](OC(=O)c3ccccc3)[C@]3(O)C[C@H](OC(=O)[C@H](O)[C@@H](NC(=O)c4ccccc4)c4ccccc4)C(C)=C1C3(C)C)[C@]1(OC(C)=O)CO[C@@H]1C[C@@H]2O` [Paclitaxel], for which the “MAVE” value in series [1] (human) was determined as 0.03 µM.

As to `O=c1[nH]cc(F)c(=O)[nH]1` [Fluorouracil], the “MAVE” value in series [1] (human) worked out at 100 µM. Further, the “Cmax Total” value in series [2] (therapeutic total Cmax) was 4600 nM.

In the case of `COc1cc2c(Nc3ccc(Br)cc3F)ncnc2cc1OCC1CCN(C)CC1` [Vandetanib], in series [1] (human), the “MAVE” value is 1 µM. In addition, in series [2] (therapeutic total Cmax), the “Cmax Total” value was 3300 nM.

In the case of `CN(CCOc1ccc(NS(C)(=O)=O)cc1)CCc1ccc(NS(C)(=O)=O)cc1` [Dofetilide], the “MAVE” value in series [1] (human) came to 100 µM. Further, the “Cmax Total” value in series [2] (therapeutic total Cmax) was 8 nM.

With `Nc1nc2c(ncn2COCCO)c(=O)[nH]1` [Acyclovir], in series [1] (human), the “MAVE” value turned out to be 100 µM. Moreover, the “Cmax Total” value in series [2] (therapeutic total Cmax) was 6700 nM.

Take `c1ccc2[nH]c(-c3cscn3)nc2c1` [Thiabendazole]: the “MAVE” value in series [1] (human) worked out at 100 µM. Also, the “Cmax Total” value in series [2] (therapeutic total Cmax) was 30800 nM.

On to `CSc1ccc2c(c1)N(CCC1CCCCN1C)c1ccccc1S2` (stereo not drawn) [Thioridazine], for which, in series [1] (human), the “MAVE” value turned out to be 1 µM.

With `Cc1occc(=O)c1O` [Maltol], in series [1] (human), the “MAVE” value is 100 µM. Further, the “Cmax Total” value in series [2] (therapeutic total Cmax) was 30000 nM.

Turning to `COc1cccc2c1C(=O)c1c(O)c3c(c(O)c1C2=O)C[C@@](O)(C(=O)CO)C[C@@H]3O[C@H]1C[C@H](N)[C@H](O)[C@H](C)O1` [Doxorubicin], the “MAVE” value in series [1] (human) was determined as 0.1 µM. Moreover, in series [2] (therapeutic total Cmax), the “Cmax Total” value is 15300 nM.

Turning to `COC(=O)c1ccc(O)cc1` [Methylparaben], in series [1] (human), the “MAVE” value stood at 100 µM. In addition, the “Cmax Total” value in series [2] (therapeutic total Cmax) is 230 nM.

Regarding `O=C(O)C(O)C(O)C(=O)O` (stereo not drawn) [Tartaric Acid], in series [1] (human), the “MAVE” value worked out at 100 µM.

In the case of `CCN(CC)CCNC(=O)c1c(C)[nH]c(/C=C2\C(=O)Nc3ccc(F)cc32)c1C` [Sunitinib], the “MAVE” value in series [1] (human) was determined as 1 µM. For the same compound, the “Cmax Total” value in series [2] (therapeutic total Cmax) is 250 nM.

In the case of `COc1cccc2c1C(=O)c1c(O)c3c(c(O)c1C2=O)C[C@@](O)(C(C)=O)C[C@@H]3O[C@H]1C[C@H](N)[C@H](O)[C@H](C)O1` [Daunorubicin], in series [1] (human), the “MAVE” value was 0.1 µM. For the same compound, the “Cmax Total” value in series [2] (therapeutic total Cmax) is 89000 nM.

Take `O=C1CN2Cc3c(ccc(Cl)c3Cl)N=C2N1` [Anagrelide]: the “MAVE” value in series [1] (human) was 30 µM. For the same compound, the “Cmax Total” value in series [2] (therapeutic total Cmax) was 60 nM.

Regarding `O=C(O)CCCC[C@@H]1SC[C@@H]2NC(=O)N[C@@H]21` [Biotin], the “MAVE” value in series [1] (human) came out at 100 µM. In addition, in series [2] (therapeutic total Cmax), the “Cmax Total” value is 10 nM.

In the case of `O=C(O)CC(O)(CC(=O)O)C(=O)O` [Citric Acid], the “MAVE” value in series [1] (human) came out at 100 µM. In addition, the “Cmax Total” value in series [2] (therapeutic total Cmax) is 128000 nM.

For `Cc1ccc(NC(=O)c2ccc(CN3CCN(C)CC3)cc2)cc1Nc1nccc(-c2cccnc2)n1` [Imatinib], the “MAVE” value in series [1] (human) came to 3 µM.

The values are drawn from patent US20250264459A1, “IN VITRO ASSAY TO PREDICT CARDIOTOXICITY” (Stemina Biomarker Discovery, Inc., priority 2018, published 2025).
